Among the data in BindingDB's records for patent US20250161319 (Asclepieion Pharmaceutical, 2025) are IC50 values, retold here.

The term IC50 denotes the concentration at which inhibition is half-maximal. Higher therefore signals weaker potency.

The assay concerns the target Mitogen-activated protein kinase kinase kinase kinase 1 (Homo sapiens, UniProt Q92918). The assay can be described thus: Tests of Compounds for Inhibiting HPK1 Kinase Activity In Vitro. As to the method:
The compound dilution was transferred into 384-well plate by using a pipette, afterwards, the 384-well plate was sealed and centrifuged at 1000 g for 1 min. 2-fold concentration of HPK1 solution was prepared in the kinase buffer, and then 2.5 μL of the prepared 2-fold concentration of HPK1 solution was added into the 384 wells, centrifuged at 1000 g for 30 s, and incubated for 10 min at room temperature. A mixture of 2-fold concentration of MBP and ATP was prepare in the kinase buffer, and […] of prepared mixture of 2-fold concentration of MBP and ATP was added into the above reaction system for the reaction, centrifuged at 1000 g for 30 s, and then incubated at room temperature for 1 h, 5 μL of ADP-Glo reagent was added into the reaction system, and incubated at room temperature for 40 min. 10 μL of kinase detection reagent was added and incubated at room temperature for 40 min.

Chain of Mitogen-activated protein kinase kinase kinase kinase 1 (Q92918 whole entry): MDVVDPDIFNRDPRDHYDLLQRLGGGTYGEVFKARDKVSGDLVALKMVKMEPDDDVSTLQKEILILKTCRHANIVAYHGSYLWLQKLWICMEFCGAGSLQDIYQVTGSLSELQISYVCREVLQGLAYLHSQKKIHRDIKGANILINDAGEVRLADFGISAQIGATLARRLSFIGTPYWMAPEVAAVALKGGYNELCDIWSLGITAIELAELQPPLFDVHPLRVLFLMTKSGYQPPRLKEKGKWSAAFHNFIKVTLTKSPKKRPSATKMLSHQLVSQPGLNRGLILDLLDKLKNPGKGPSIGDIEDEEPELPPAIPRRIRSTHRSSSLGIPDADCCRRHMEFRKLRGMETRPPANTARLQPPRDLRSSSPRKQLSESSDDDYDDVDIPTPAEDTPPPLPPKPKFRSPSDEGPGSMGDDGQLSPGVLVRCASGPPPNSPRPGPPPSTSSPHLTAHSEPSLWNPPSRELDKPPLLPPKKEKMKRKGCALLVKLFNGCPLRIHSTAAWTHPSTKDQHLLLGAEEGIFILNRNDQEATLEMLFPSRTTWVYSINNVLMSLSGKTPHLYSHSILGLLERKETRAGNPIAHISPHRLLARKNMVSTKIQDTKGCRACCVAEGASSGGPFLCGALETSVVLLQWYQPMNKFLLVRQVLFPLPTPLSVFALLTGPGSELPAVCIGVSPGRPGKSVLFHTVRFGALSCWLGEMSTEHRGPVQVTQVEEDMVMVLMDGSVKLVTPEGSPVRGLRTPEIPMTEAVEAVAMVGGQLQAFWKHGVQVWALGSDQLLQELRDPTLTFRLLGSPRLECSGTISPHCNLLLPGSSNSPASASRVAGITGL

For `Cn1cccc1-c1cc2cc(NC(=O)c3ccc(N4CCNCC4)cc3)ncc2c(N)c1F` [US20250161319, Example 6], the IC50 was less than 100 nM.

Regarding `CCn1cccc1-c1cc2cc(NC(=O)C3CCC(F)CC3)ncc2c(N)c1F` (configuration not stated) [US20250161319, Example 9], the IC50 was less than 300 nM.

`CN1CCN(c2ccc(C(=O)Nc3cc4cc(-c5cccn5C)c(F)c(N)c4cn3)cc2)CC1` [US20250161319, Example 7] returned an IC50 of less than 300 nM.

For the compound `Cn1cccc1-c1cc2cc(NC(=O)C3CC3F)ncc2c(F)c1C#N` (configuration not stated) [US20250161319, Example 10], the IC50 was greater than 300 nM.

As to `C=Cn1cccc1-c1cc2cc(NC(=O)C3CC3F)ncc2c(N)c1F` (configuration not stated) [US20250161319, Example 4], the IC50 was less than 50 nM.

Consider `CC(C)n1cccc1-c1cc2cc(NC(=O)C3CC3F)ncc2c(N)c1F` (configuration not stated) [US20250161319, Example 3], for which the IC50 is less than 50 nM.

`CCn1cccc1-c1cc2cc(NC(=O)C3CC3F)ncc2c(N)c1F` (configuration not stated) [US20250161319, Example 2]: the IC50 was less than 50 nM.
